Data as given in patent US20240051975A1 (TSINGHUA UNIVERSITY, priority 2020, published 2024).

Molecular target: NAMPT (Homo sapiens, UniProt P43490)
Assay: NAMPT enzyme activity assay coupled with NMNAT1 and ADH (NADH fluorescence)
Conditions: AUC of dose-response curve (0.1, 0.3, 1, 3, 10 μM) relative to AUC of NAT (NAT = 1); 1 μM NAMPT, 200 μM NAM
Experimental: The NAMPT enzyme activity was assayed by a method coupled with the three enzymes: NAMPT, NMNAT1 and alcohol dehydrogenase (ADH). NAMPT synthesizes NMN from NAM and PRPP, NMNAT1 synthesizes NAD from NMN produced in the first step, and ADH converts NAD into detectable fluorescent NADH. […] The reaction was initiated by adding 200 μM nicotinamide (NAM) and mixing gently. The enzyme activity of NAMPT was expressed as the concentration of NADH generated per minute (the molar value was equal to NAD). The relative enzyme activity of NAMPT in each compound-treated group was normalized by the value of the DMSO-treated group, and a dose-response curve was drawn to evaluate the effect of individual compounds on NAMPT enzyme activity. The area under the dose-response curve (AUC, area under curve) was then calculated for individual compound and compared to the AUC of NAT, so that the obtained relative value quantitative Eauc represented the enzyme activation activity of each compound, and the specific calculation formula was shown in FIG. 3.

NAMPT, sequence (P43490 whole entry, species assumed): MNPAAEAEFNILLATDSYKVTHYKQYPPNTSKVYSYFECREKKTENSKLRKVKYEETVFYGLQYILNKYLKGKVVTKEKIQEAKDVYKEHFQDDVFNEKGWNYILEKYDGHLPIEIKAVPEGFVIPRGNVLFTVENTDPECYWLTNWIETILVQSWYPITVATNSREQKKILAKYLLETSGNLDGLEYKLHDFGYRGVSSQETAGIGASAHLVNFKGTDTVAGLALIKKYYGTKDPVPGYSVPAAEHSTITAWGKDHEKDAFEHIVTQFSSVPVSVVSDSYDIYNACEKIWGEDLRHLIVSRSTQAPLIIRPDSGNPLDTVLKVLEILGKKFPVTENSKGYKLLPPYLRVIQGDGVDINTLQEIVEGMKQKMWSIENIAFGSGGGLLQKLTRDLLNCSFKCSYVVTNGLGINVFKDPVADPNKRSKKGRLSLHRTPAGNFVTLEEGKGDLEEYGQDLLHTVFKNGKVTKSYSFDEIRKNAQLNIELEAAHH

Row | Relative activation of NAMPT activity | SMILES
1 | −0.1895 | CC(C)(C)c1ccccc1OCC(=O)Nc1cccc(O)c1 [Compound 3, 2-(2-(tert-butyl)phenoxy)-N-(3-hydroxyphenyl)acetamide]
2 | −0.1833 | CC(C)(C)c1ccccc1OCC(=O)Nc1ccccc1O [Compound 4, 2-(2-(tert-butyl)phenoxy)-N-(2-hydroxyphenyl)acetamide]
3 | −0.168 | COc1ccc(NC(=O)COc2ccccc2C(C)(C)C)cc1 [Compound 5, 2-(2-(tert-butyl)phenoxy)-N-(4-methoxyphenyl)acetamide]
4 | −0.1512 | CCOC(=O)c1ccc(NC(=O)COc2ccccc2C(C)(C)C)cc1 [Compound 6, ethyl 4-(2-(2-(tert-butyl)phenoxy)acetamido) benzoate]
5 | −0.1777 | CN(C)c1ccc(NC(=O)COc2ccccc2C(C)(C)C)cc1 [Compound 7, 2-(2-(tert-butyl)phenoxy)-N-(4-(dimethylamino)phenyl)acetamide]
6 | −0.1983 | CC(C)(C)c1ccccc1OCC(=O)Nc1ccc(Cl)cc1 [Compound 8, 2-(2-(tert-butyl)phenoxy)-N-(4-chlorophenyl)acetamide]
7 | −0.2123 | CC(C)(C)c1ccccc1OCC(=O)Nc1ccc(F)cc1 [Compound 9, 2-(2-(tert-butyl)phenoxy)-N-(4-fluorophenyl)acetamide]
8 | −0.1608 | Cc1ccc(NC(=O)COc2ccccc2C(C)(C)C)cc1 [Compound 10, 2-(2-(tert-butyl)phenoxy)-N-(p-tolyl)acetamide]
9 | −0.1409 | CC(C)(C)c1ccccc1OCC(=O)Nc1ccc(Oc2ccccc2)cc1 [Compound 11, 2-(2-(tert-butyl)phenoxy)-N-(4-phenoxyphenyl)acetamide]
10 | −0.0947 | CC(C)(C)c1ccccc1OCC(=O)Nc1ccc(-c2ccccc2)cc1 [Compound 12]
11 | 0.2733 | CC(C)(C)c1cccc(OCC(=O)Nc2ccc(O)cc2)c1 [Compound 13, 2-(3-(tert-butyl)phenoxy)-N-(4-hydroxyphenyl)acetamide]
12 | −0.1236 | CC(C)(C)c1ccc(OCC(=O)Nc2ccc(O)cc2)cc1 [Compound 14, 2-(4-(tert-butyl)phenoxy)-N-(4-hydroxyphenyl)acetamide]
13 | 0.0971 | O=C(COc1ccccc1)Nc1ccc(O)cc1 [Compound 16, N-(4-hydroxyphenyl)-2-phenoxyacetamide]
14 | 0.3353 | O=C(COc1ccccc1-c1ccccc1)Nc1ccc(O)cc1 [Compound 17, 2-([1,1′-biphenyl]-2-yloxy)-N-(4-hydroxyphenyl)acetamide]
15 | −0.142 | CC(C)(C)c1cccc(C(C)(C)C)c1OCC(=O)Nc1ccc(O)cc1 [Compound 18, 2-(2,6-di-tert-butylphenoxy)-N-(4-hydroxyphenyl)acetamide]
16 | 0.1507 | Cc1cccc(OCC(=O)Nc2ccc(O)cc2)c1 [Compound 19, N-(4-hydroxyphenyl)-2-(m-tolyloxy)acetamide]
17 | −0.2226 | CC(C)(C)c1ccccc1CNC(=O)Nc1ccc(O)cc1 [Compound 25, 1-(2-tert-butyl)benzyl-3-(4-hydroxyl)phenylurea]
18 | −0.2346 | CC(C)(C)c1ccccc1OCC(=O)Nc1ccc(S(N)(=O)=O)cc1 [Compound 26, 2-(2-(tert-butyl)phenoxy)-N-(4-sulfamoylphenyl)acetamide]
19 | 0.1217 | CC(C)(C)c1ccccc1OCC(=O)Nc1ccc(B(O)O)cc1 [Compound 27]
20 | −0.2198 | CC(C)(C)c1ccccc1OCC(=O)Nc1ccc(CO)cc1 [Compound 28, 2-(2-(tert-butyl)phenoxy)-N-(4-(hydroxymethyl)phenyl)acetamide]

Row | Relative activation of NAMPT activity | SMILES
21 | −0.1978 | CC(C)(C)OC(=O)Nc1ccc(NC(=O)COc2ccccc2C(C)(C)C)cc1 [Compound 29, tert-butyl (4-(2-(2-(tert-butyl)phenoxy)acetamido)phenyl)carbamate]
22 | 0.8075 | CC(C)(C)c1ccccc1OCC(=O)Nc1ccc(N)cc1 [Compound 30, N-(4-aminophenyl)-2-(2-(tert-butyl)phenoxy)acetamide]
23 | −0.2396 | CC(C)(C)c1ccccc1OCC(=O)Nc1ccc(C#N)cc1 [Compound 32, 2-(2-(tert-butyl)phenoxy)-N-(4-cyanophenyl)acetamide]
24 | −0.1619 | CC(C)(C)c1ccccc1OCC(=O)Nc1ccc(C(=O)O)cc1 [Compound 33, 4-(2-(2-(tert-butyl)phenoxy)acetamido)benzoic acid]
25 | −0.096 | CC(C)(C)c1ccccc1OCC(=O)Nc1ccc(S)cc1 [Compound 34, 2-(2-(tert-butyl)phenoxy)-N-(4-mercaptophenyl)acetamide]
26 | −0.0889 | CC(C)(C)c1ccccc1OCC(=O)Nc1ccc(O)cc1C(=O)O [Compound 35, 2-(2-(2-(tert-butyl)phenoxy)acetamido)-5-hydroxybenzoic acid]
27 | −0.1366 | CC(C)(C)c1ccccc1OCC(=O)Nc1ccc(O)c(O)c1 [Compound 37, 2-(2-(tert-butyl)phenoxy)-N-(3,4-dihydroxyphenyl)acetamide]
28 | −0.12 | CC(C)(C)c1ccccc1OCC(=O)Nc1ccc(O)cc1C(F)(F)F [Compound 38, 2-(2-(tert-butyl)phenoxy)-N-(4-hydroxy-2-(trifluoromethyl)phenyl)acetamide]
29 | −0.1435 | CC(C)(C)c1ccccc1OCC(=O)Nc1ccc(O)c(C(F)(F)F)c1 [Compound 39, 2-(2-(tert-butyl)phenoxy)-N-(4-hydroxyl-3-(trifluoromethyl)phenyl)acetamide]
30 | −0.1833 | CC(C)(C)c1ccccc1OCC(=O)Nc1ccc(O)c(Cl)c1 [Compound 42, 2-(2-(tert-butyl)phenoxy)-N-(3-chloro-4-hydroxyphenyl)acetamide]
31 | −0.168 | Cc1cc(O)ccc1NC(=O)COc1ccccc1C(C)(C)C [Compound 43]
32 | −0.1512 | COc1cc(NC(=O)COc2ccccc2C(C)(C)C)ccc1O [Compound 44, 2-(2-(tert-butyl)phenoxy)-N-(4-hydroxyl-3-methoxyphenyl)acetamide]
33 | −0.3625 | COC(=O)c1cc(NC(=O)COc2ccccc2C(C)(C)C)ccc1O [Compound 45, 5-(2-(2-(tert-butyl)phenoxy)acetamido)-2-hydroxybenzoic acid methyl ester]
34 | −0.1777 | CC(=O)c1cc(NC(=O)COc2ccccc2C(C)(C)C)ccc1O [Compound 46, N-(3-acetyl-4-hydroxyphenyl)-2-(2-(tert-butyl)phenoxy)acetamide]
35 | −0.1983 | CC(C)(C)c1ccccc1OCC(=O)Nc1ccc(O)c(CO)c1 [Compound 47, 2-(2-(tert-butyl)phenoxy)-N-(4-hydroxyl-3-(hydroxymethyl)phenyl)acetamide]
36 | −0.1608 | CC(C)(C)c1ccccc1OCC(=O)Nc1ccc(O)cc1O [Compound 48, 2-(2-(tert-butyl)phenoxy)-N-(2,4-dihydroxyphenyl)acetamide]
37 | −0.0947 | CC(C)(C)c1ccccc1OCC(=O)Nc1ccc(O)cn1 [Compound 49, 2-(2-(tert-butyl)phenoxy)-N-(5-hydroxypyridin-2-yl)acetamide]
38 | −0.1356 | CC(C)(C)c1ccccc1OCC(=O)Nc1ccc(O)cc1CO [Compound 50, 2-(2-(tert-butyl)phenoxy)-N-(4-hydroxyl-2-(hydroxymethyl)phenyl)acetamide]
39 | 0.02456 | CC(C)(C)c1cc(Br)cc(Br)c1OCC(=O)Nc1ccc(O)cc1 [Compound 60, 2-(2,4-dibromo-6-(tert-butyl)phenoxy)-N-(4-hydroxyphenyl)acetamide]

Tested on: cell death induced by the NAMPT inhibitor FK866
Assay: Protection against cell death induced by the NAMPT inhibitor FK866 (Celltiter-Glo, cellular ATP)
Assay type: cell-based
Conditions: AUC of dose-response curve (0.1-10 μM) relative to AUC of NAT; 10 nM FK866, 72 hours, cell viability by ATP
Experimental: In the latter cell-based assay, we determined the degree of protection of NAT and derivatives thereof against the NAMPT inhibitor FK866. […] After 72 hours, Celltiter-Glo (Promega) was used to detect cellular ATP levels to reflect cell viability and normalized to the DMSO group. A dose-response curve was drawn to evaluate the cytoprotective activity of individual compounds against FK866. Then the area under the dose-response curve (AUC, area under curve) of each compound was calculated and compared with the AUC of NAT, so that the obtained relative value quantitatively expressed the cytoprotective activity of each compound.

Row | SMILES | Relative cytoprotective activity
40 | CC(C)(C)c1cccc(OCC(=O)Nc2ccc(O)cc2)c1 [Compound 13, 2-(3-(tert-butyl)phenoxy)-N-(4-hydroxyphenyl)acetamide] | 0.2653
41 | CC(C)(C)c1ccc(OCC(=O)Nc2ccc(O)cc2)cc1 [Compound 14, 2-(4-(tert-butyl)phenoxy)-N-(4-hydroxyphenyl)acetamide] | 0.01994
42 | Cc1ccccc1OCC(=O)Nc1ccc(O)cc1 [Compound 15, N-(4-hydroxyphenyl)-2-(o-tolyloxy)acetamide] | 0.4402
43 | O=C(COc1ccccc1)Nc1ccc(O)cc1 [Compound 16, N-(4-hydroxyphenyl)-2-phenoxyacetamide] | 0.1684
44 | O=C(COc1ccccc1-c1ccccc1)Nc1ccc(O)cc1 [Compound 17, 2-([1,1′-biphenyl]-2-yloxy)-N-(4-hydroxyphenyl)acetamide] | 0.4572
45 | CC(C)(C)c1cccc(C(C)(C)C)c1OCC(=O)Nc1ccc(O)cc1 [Compound 18, 2-(2,6-di-tert-butylphenoxy)-N-(4-hydroxyphenyl)acetamide] | 0.04793
46 | Cc1cccc(OCC(=O)Nc2ccc(O)cc2)c1 [Compound 19, N-(4-hydroxyphenyl)-2-(m-tolyloxy)acetamide] | 0.09517
47 | CC(C)(C)c1cccc(C#N)c1OCC(=O)Nc1ccc(O)cc1 [Compound 21, 2-(2-(tert-butyl)-6-cyanophenoxy)-N-(4-hydroxyphenyl)acetamide] | 2.198
48 | CCc1ccc(OCC(=O)Nc2ccc(O)cc2)c(C(C)(C)C)c1 [Compound 54, 2-(2-(tert-butyl)-4-ethylphenoxy)-N-(4-hydroxyphenyl)acetamide] | 0.8554
49 | CC(C)(C)c1cc(F)ccc1OCC(=O)Nc1ccc(O)cc1 [Compound 56, 2-(2-(tert-butyl)-4-fluorophenoxy)-N-(4-hydroxyphenyl)acetamide] | 0.9846
50 | CC(C)(C)c1cccc(Br)c1OCC(=O)Nc1ccc(O)cc1 [Compound 59, 2-(2-bromo-6-(tert-butyl)phenoxy)-N-(4-hydroxyphenyl)acetamide] | 0.5085

Same assay, conditions: against FK866

Row | SMILES | cytoprotective activity (in words)
51 | CC(C)(C)c1cccc(C#N)c1OCC(=O)Nc1ccc(O)cc1 [Compound 21, 2-(2-(tert-butyl)-6-cyanophenoxy)-N-(4-hydroxyphenyl)acetamide] | significantly improved compared with NAT
